Data published in patent publication US10821115B2, “Compounds that inhibit Mcl-1 protein” (priority 2017, dated 2020).
Like-named read-outs stand apart in the source and are kept apart here.

What was measured:
[1] = tested on: human multiple myeloma cell line, OPM-2; experiment: Cell viability assay (OPM-2 10 FBS), CellTiter-Glo; assay type: cell-based
Summary of the method: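 OPM-2 cells at 3000 cells/well in RPMI 1640 with 10% FBS were exposed to serially diluted compounds for 16 h at 37 °C, 5% CO2.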

[2] = biological target: recombinant human Mcl-1 (residues 171-327) / Bim interaction (Homo sapiens (Human), UniProt Q07820); experiment: biochemical; assay type: binding; details: read-out: Mcl-1 HTRF IC50
Sequence of recombinant human Mcl-1 (residues 171-327) / Bim interaction (Q07820 171-327): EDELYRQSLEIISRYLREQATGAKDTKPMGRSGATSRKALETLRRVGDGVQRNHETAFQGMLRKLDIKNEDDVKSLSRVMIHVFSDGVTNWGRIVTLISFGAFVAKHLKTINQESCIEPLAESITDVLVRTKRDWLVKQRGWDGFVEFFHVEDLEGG

[3] = Homo sapiens, OPM-2, 16 h, read-out: OPM-2 10% FBS IC50 IP, OPM-2 cells, 10% FBS, 16 h, CellTiter-Glo
[4] = TR-FRET, Mcl-1(171-327) / biotin-Bim (51-76)

SMILES | IC50 [1, 3] [nM] | IC50 [2, 4] [nM] | IC50 ([1]; Homo sapiens, OPM-2, 16 h, read-out: OPM-2 10% FBS IC50 IP, OPM-2 cells, 10% FBS, 16 h incubation) [nM] | IC50 ([2]; 0.1 nM Mcl-1(171-327), 0.05 nM biotin-Bim (51-76)) [nM] | IC50 ([1]; read-out: OPM-2 10% FBS IC50 IP, OPM-2 cells, 10% FBS, 16 h, CellTiter-Glo) [nM]
CO[C@@]1(CC(=O)c2ccccc2)/C=C/C[C@H](C)[C@@H](C)S(=O)(=O)NC(=O)c2ccc3c(c2)N(C[C@@H]2CC[C@H]21)C[C@@]1(CCCc2cc(Cl)ccc21)CO3 [Example 100458, (1S,3′R,6′R,7′S,8′E,11′S,12′R)-6-chloro-7′-methoxy-11′,12′-dimethyl-7′-(2-oxo-2-phenylethyl)-3,4-dihydro-2H,15′H-spiro[naphthalene-1,22′-[20]oxa[13]thia[1,14]diazatetracyclo [14.7.2.0~3,6~.0~19,24~]pentacosa[8,16,18,24]tetraen]-15′-one 13′,13′-dioxide] | 418 | 0.21 | – | – | –
CO[C@]1(CN2CCN(CCS(C)(=O)=O)CC2)/C=C/C[C@H](C)[C@@H](C)S(=O)(=O)NC(=O)c2ccc3c(c2)N(C[C@@H]2CC[C@H]21)C[C@@]1(CCCc2cc(Cl)ccc21)CO3 [Example 73, (1S,3′R,6′R,7′R,8′E,11′S,12′R)-6-chloro-7′-methoxy-11′,12′-dimethyl-7′-((4-(2-(methylsulfonyl)ethyl)-1-piperazinyl)methyl)-3,4-dihydro-2H,15′H-spiro[naphthalene-1,22′-[20]oxa[13]thia[1,14]diazatetracyclo [14.7.2.0~3,6~.0~19,24~]pentacosa[8,16,18,24]tetraen]-15′-one 13′,13′-dioxide] | – | – | 129 | 0.609 | –
COC(OC)c1cncc([C@@]2(OC)/C=C/C[C@H](C)[C@@H](C)S(=O)(=O)NC(=O)c3ccc4c(c3)N(C[C@@H]3CC[C@H]32)C[C@@]2(CCCc3cc(Cl)ccc32)CO4)c1 (single isomer, unassigned) [Example 100511] | 430 | 0.07 | – | – | –
C[C@@H]1[C@@H](C)C/C=C/[C@@](O)(c2ccc(F)cn2)[C@@H]2CC[C@H]2CN2C[C@@]3(CCCc4cc(Cl)ccc43)COc3ccc(cc32)C(=O)NS1(=O)=O (single isomer, unassigned) [Example 100402] | 133 | 0.098 | – | – | –
C[C@@H]1[C@@H](C)C/C=C/[C@](O)(c2cnc(Cl)n2C)[C@@H]2CC[C@H]2CN2C[C@@]3(CCCc4cc(Cl)ccc43)COc3ccc(cc32)C(=O)NS1(=O)=O (single isomer, unassigned) [Example 100543] | 821 | 0.451 | – | – | –
C[C@@H]1[C@@H](C)CCC[C@](O)([C@@H](C)C(=O)N(C)C)[C@@H]2CC[C@H]2CN2C[C@@]3(CCCc4cc(Cl)ccc43)COc3ccc(cc32)C(=O)NS1(=O)=O (single isomer, unassigned) [Example 100119] | – | 1.72 | – | – | 1570
CO[C@@]1(CCN(C)C)/C=C/C[C@H](C)[C@@H](C)S(=O)(=O)NC(=O)c2ccc3c(c2)N(C[C@@H]2CC[C@H]21)C[C@@]1(CCCc2cc(Cl)ccc21)CO3 [Example 100393, (1S,3′R,6′R,7′S,8′E,11′S,12′R)-6-chloro-7′-(2-(dimethylamino)ethyl)-7′-methoxy-11′,12′-dimethyl-3,4-dihydro-2H,15′H-spiro[naphthalene-1,22′-[20]oxa[13]thia[1,14]diazatetracyclo [14.7.2.0~3,6~.0~19,24~]pentacosa[8,16,18,24]tetraen]-15′-one 13′,13′-dioxide] | 211 | 0.164 | – | – | –
CCN(CC)C(=O)C[C@]1(O)/C=C/C[C@H](C)[C@@H](C)S(=O)(=O)NC(=O)c2ccc3c(c2)N(C[C@@H]2CC[C@H]21)C[C@@]1(CCCc2cc(Cl)ccc21)CO3 [Example 100083, 2-((1S,3′R,6′R,7′S,8′E,11′S,12′R)-6-chloro-7′-hydroxy-11′,12′-dimethyl-13′,13′-dioxido-15′-oxo-3,4-dihydro-2H-spiro[naphthalene-1,22′-[20]oxa[13]thia[1,14]diazatetracyclo [14.7.2.0~3,6~.0~19,24~]pentacosa[8,16,18,24]tetraen]-7′-yl)-N,N-diethylacetamide] | 123 | 0.179 | – | – | –
